Test results from US20260347373A1, “HETEROCYCLIC COMPOUNDS, COMPOSITIONS THEREOF, AND METHODS OF TREATMENT THEREWITH” (BeOne Medicines I GmbH, priority 2023, published 2026).
Where a name gives a salt, the structure may show the parent alone. Read-outs that look alike come from different tables or passages of the source.

Legend:
KRAS G12D = KRAS G12D (Homo sapiens, UniProt P01116, G12D); experiment: KRAS G12D Probe Displacement Assay (TR-FRET, GDP-loaded); assay type: binding
From the text: (§1) The synthetic routes of probe 1 and 2, which have been disclosed in PCT/CN2022/070676, are hereby incorporated herein.

WT KRAS = WT KRAS (Homo sapiens, UniProt P01116); experiment: KRAS WT Probe Displacement Assay (TR-FRET, GDP-loaded); assay type: binding
From the text: as §1

[1] = KRAS G12D, read-out: KRAS^G12D Probe Displacement Assay IC50
[2] = KRAS WT, read-out: KRAS^WT Probe Displacement Assay IC50
[3] = KRAS^G12D Probe Displacement Assay IC50, KRAS G12D
[4] = KRAS^WT Probe Displacement Assay IC50, KRAS WT

Chain of WT KRAS (P01116 1-188 isoform P01116-2): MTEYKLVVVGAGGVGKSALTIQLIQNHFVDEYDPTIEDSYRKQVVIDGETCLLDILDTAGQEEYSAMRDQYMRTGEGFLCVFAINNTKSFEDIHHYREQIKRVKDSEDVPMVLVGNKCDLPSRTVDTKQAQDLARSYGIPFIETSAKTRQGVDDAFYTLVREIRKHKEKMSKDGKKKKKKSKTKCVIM
Chain of KRAS G12D (P01116 1-188 isoform P01116-2 G12D): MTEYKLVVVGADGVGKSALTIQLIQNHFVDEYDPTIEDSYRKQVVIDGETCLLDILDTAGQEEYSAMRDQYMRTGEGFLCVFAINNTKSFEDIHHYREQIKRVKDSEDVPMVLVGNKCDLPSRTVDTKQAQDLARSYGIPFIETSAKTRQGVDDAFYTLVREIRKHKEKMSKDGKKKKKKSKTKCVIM

| SMILES | IC50 (KRAS G12D; [1]) [nM] | IC50 (WT KRAS; [2]) [nM] | IC50 (KRAS G12D; [3]) [nM] | IC50 (WT KRAS; [4]) [nM] |
| --- | --- | --- | --- | --- |
| Cc1cc(N)cc(-c2nc3c4c(nc(OCC5(CN6C[C@@H]7[C@@H](CF)[C@@H]7C6)CC5)nc4c2F)N2C[C@H]4CC[C@H](N4)[C@H]2CCO3)c1C(F)(F)F [Example 170, 3-((6aR,7S,10R)-1-fluoro-13-((1-(((1R,5S,6R)-6-(fluoromethyl)-3-azabicyclo[3.1.0]hexan-3-yl)methyl)cyclopropyl)methoxy)-5,6,6a,7,8,9,10,11-octahydro-4-oxa-3,11a,12,14,15-pentaaza-7,10-methanocyclohepta[4,5]cycloocta[1,2,3-de]naphthalen-2-yl)-5-methyl-4-(trifluoromethyl)aniline] | < 0.3 | 3 to 1000 |  |  |
| Cc1cc(N)cc(-c2nc3c4c(nc(OCC5(CN6CCC7(CCOCC7)C6)CC5)nc4c2F)N2C[C@H]4CC[C@H](N4)[C@H]2CCO3)c1C(F)(F)F [Example 101, 3-((6aR,7S,10R)-13-((1-((8-oxa-2-azaspiro[4.5]decan-2-yl)methyl)cyclopropyl)methoxy)-1-fluoro-5,6,6a, 7,8,9,10,11-octahydro-4-oxa-3,11a,12,14,15-pentaaza[7,10]methanocyclohepta [4,5]cycloocta[1,2,3-de]naphthalen-2-yl)-5-methyl-4-(trifluoromethyl) aniline formate] |  |  | < 0.3 | 3 to 1000 |
| COC1CCCN(CC2(COc3nc4c5c(nc(-c6cc(N)cc(C)c6C(F)(F)F)c(F)c5n3)OCC[C@@H]3[C@@H]5CC[C@H](CN43)N5)CC2)C1 (stereo partly drawn) [Example 119, 3-((6aR,7S,10R)-1-fluoro-13-((1-((3-methoxypiperidin-1-yl)methyl)cyclopropyl)methoxy)-5,6,6a,7,8,9,10,11-octahydro-4-oxa-3,11a,12,14,15-pentaaza-7,10-methanocyclohepta [4,5]cycloocta[1,2,3-de]naphthalen-2-yl)-5-methyl-4-(trifluoromethyl) aniline] |  |  | < 0.3 | 3 to 1000 |
| Cc1cc(N)cc(-c2nc3c4c(nc(OC[C@@H]5COC[C@H]5N(C)C)nc4c2F)N2C[C@H]4CC[C@H](N4)[C@H]2CCO3)c1C(F)(F)F [Example 13, (3S,4S)-4-((((6aR,7S,10R)-2-(5-amino-3-methyl-2-(trifluoromethyl)phenyl)-1-fluoro-5,6,6a,7,8,9,10,11-octahydro-4-oxa-3,11a,12,14,15-pentaaza-7,10-methanocyclohepta[4,5]cycloocta [1,2,3-de]naphthalen-13-yl)oxy)methyl)-N,N-dimethyltetrahydrofuran-3-amine] | < 0.3 | 3 to 1000 |  |  |
| [2H]C([2H])([2H])N1CC[C@H](OC)[C@H]1[C@H](C)Oc1nc2c3c(nc(-c4cc(N)cc(C)c4C(F)(F)F)c(F)c3n1)OCC[C@@H]1[C@@H]3CC[C@H](CN21)N3 [Example 142, 3-((6aR,7S,10R)-1-fluoro-13-((S)-1-((2R,3S)-3-methoxy-1-(methyl-d3)pyrrolidin-2-yl)ethoxy)-5,6,6a,7,8,9,10,11-octahydro-4-oxa-3,11a,12,14,15-pentaaza-7,10-methano-cyclohepta[4,5]cycloocta [1,2,3-de]naphthalen-2-yl)-5-methyl-4-(trifluoromethyl)aniline] | < 0.3 | 3 to 1000 |  |  |
| Cc1cc(N)cc(-c2nc3c4c(nc(OCC5(C)CC(F)CN(C6CCOCC6)C5)nc4c2F)N2C[C@H]4CC[C@H](N4)[C@H]2CCO3)c1C(F)(F)F (single isomer, unassigned) [Example 232] | < 0.3 | 0.3 to 3 |  |  |
| Cc1cc(N)cc(-c2nc3c4c(nc(OCC5(CN6C[C@@H]7C[C@@H]7[C@H]6C)CC5)nc4c2F)N2C[C@H]4CC[C@H](N4)[C@H]2CCO3)c1C(F)(F)F [Example 171, 3-((6aR,7S,10R)-1-fluoro-13-((1-(((1S,2R,5R)-2-methyl-3-azabicyclo[3.1.0]hexan-3-yl)methyl)cyclopropyl)methoxy)-5,6,6a,7,8,9,10,11-octahydro-4-oxa-3,11a,12,14,15-pentaaza-7,10-methanocyclohepta[4,5]cycloocta[1,2,3-de]naphthalen-2-yl)-5-methyl-4-(trifluoromethyl)aniline] | < 0.3 | 3 to 1000 |  |  |
| Nc1cc(Cl)c(C(F)(F)F)c(-c2nc3c4c(nc(OCC5(CN6CCC(=C(F)F)C6)CC5)nc4c2F)N2C[C@H]4CC[C@H](N4)[C@H]2CCO3)c1 [Example 151, 3-chloro-5-((6aR,7S,10R)-13-((1-((3-(difluoromethylene)pyrrolidin-1-yl)methyl)cyclopropyl)methoxy)-1-fluoro-5,6,6a,7,8,9,10,11-octahydro-4-oxa-3,11a,12,14,15-pentaaza-7,10-methano-cyclohepta[4,5]cycloocta [1,2,3-de]naphthalen-2-yl)-4-(trifluoromethyl)aniline] | < 0.3 | 3 to 1000 |  |  |
| Cc1cc(N)cc(-c2nc3c4c(nc(O[C@@H](C)[C@@H]5CCCN5C5CCOCC5)nc4c2F)N2C[C@H]4CC[C@H](N4)[C@H]2CCO3)c1C(F)(F)F [Example 226, 3-((6aR,7S,10R)-1-fluoro-13-((S)-1-((S)-1-(tetrahydro-2H-pyran-4-yl)pyrrolidin-2-yl)ethoxy)-5,6,6a,7,8,9,10,11-octahydro-4-oxa-3,11a,12,14,15-pentaaza-7,10-methanocyclohepta[4,5]cycloocta[1,2,3-de]naphthalen-2-yl)-5-methyl-4-(trifluoromethyl)aniline] | < 0.3 | 3 to 1000 |  |  |
| Cc1cc(N)cc(-c2nc3c4c(nc(OCC5(CN6CCC(F)(F)CC6)CC5)nc4c2F)N2C[C@H]4CC[C@H](N4)[C@H]2CCO3)c1C(F)(F)F [Example 70, 3-((6aR,7S,10R)-13-((1-((4,4-difluoropiperidin-1-yl)methyl)cyclopropyl)methoxy)-1-fluoro-5,6,6a,7,8,9,10,11-octahydro-4-oxa-3,11a,12,14,15-pentaaza-7,10-methanocyclohepta[4,5]cycloocta [1,2,3-de]naphthalen-2-yl)-5-methyl-4-(trifluoromethyl)aniline] | < 0.3 | 0.3 to 3 |  |  |
| Cc1cc(N)cc(-c2nc3c4c(nc(OCC5(CN6CCC(F)(F)C6)CC5)nc4c2F)N2C[C@H]4CC[C@H](N4)[C@H]2CCO3)c1C(F)(F)F [Example 89, 3-((6aR,7S,10R)-13-((1-((3,3-difluoropyrrolidin-1-yl)methyl)cyclopropyl)methoxy)-1-fluoro-5,6,6a,7,8,9,10,11-octahydro-4-oxa-3,11a,12,14,15-pentaaza-7,10-methanocyclohepta [4,5]cycloocta [1,2,3-de]naphthalen-2-yl)-5-methyl-4-(trifluoromethyl) aniline] |  |  | < 0.3 | 3 to 1000 |
| Cc1cc(N)cc(-c2nc3c4c(nc(OCC5(CN6CCC(C)(O)CC6)CC5)nc4c2F)N2C[C@H]4CC[C@H](N4)[C@H]2CCO3)c1C(F)(F)F [Example 115, 1-((1-((((6aR,7S, 10R)-2-(5-amino-3-methyl-2-(trifluoromethyl)phenyl)-1-fluoro-5,6,6a,7,8,9,10,11-octahydro-4-oxa-3, 11a,12,14,15-pentaaza-7,10-methanocyclohepta [4,5]cycloocta[1,2,3-de]naphthalen-13-yl)oxy)methyl)cyclopropyl)methyl)-4-methylpiperidin-4-ol] | < 0.3 | 0.3 to 3 |  |  |
| Cc1cc(N)cc(-c2nc3c4c(nc(OC[C@]5(O)COC[C@H]5N(C)C)nc4c2F)N2C[C@H]4CC[C@H](N4)[C@H]2CCO3)c1C(F)(F)F [Example 131, (3R,4R)-3-((((6aR,7S,10R)-2-(5-amino-3-methyl-2-(trifluoromethyl)phenyl)-1-fluoro-5,6,6a,7,8,9,10,11-octahydro-4-oxa-3,11a,12,14,15-pentaaza-7,10-methanocyclohepta[4,5]cycloocta [1,2,3-de]naphthalen-13-yl)oxy)methyl)-4-(dimethylamino)tetrahydrofuran-3-ol] | 0.3 to 3 | 3 to 1000 |  |  |
| Cc1cc(N)cc(-c2nc3c4c(nc(OCC5(C)CC(F)CN(C)C5)nc4c2F)N2C[C@H]4CC[C@H](N4)[C@H]2CCO3)c1C(F)(F)F (stereo partly drawn) [Example 5, 3-((6aR,7S,10R)-1-fluoro-13-((5-fluoro-1,3-dimethylpiperidin-3-yl)methoxy)-5,6,6a,7,8,9,10,11-octahydro-4-oxa-3,11a,12,14,15-pentaaza-7,10-methanocyclohepta[4,5]cycloocta [1,2,3-de]naphthalen-2-yl)-5-methyl-4-(trifluoromethyl)aniline] | < 0.3 | 3 to 1000 |  |  |
| Cc1cc(N)cc(-c2nc3c4c(nc(OCC5(CN6CCC7(CC6)COC7)CC5)nc4c2F)N2C[C@H]4CC[C@H](N4)[C@H]2CCO3)c1C(F)(F)F [Example 102, 3-((6aR,7S,10R)-13-((1-((2-oxa-7-azaspiro[3.5]nonan-7-yl)methyl)cyclopropyl)methoxy)-1-fluoro-5,6,6a,7,8,9,10,11-octahydro-4-oxa-3,11a,12,14,15-pentaaza[7,10]methanocyclohepta [4,5]cycloocta [1,2,3-de]naphthalen-2-yl)-5-methyl-4-(trifluoromethyl)aniline] | < 0.3 | 0.3 to 3 |  |  |
| Cc1cc(N)cc(-c2nc3c4c(nc(OCC5(CN6CCCC(C(F)(F)F)C6)CC5)nc4c2F)N2C[C@H]4CC[C@H](N4)[C@H]2CCO3)c1C(F)(F)F (stereo partly drawn) [Example 118, 3-((6aR,7S,10R)-1-fluoro-13-((1-((3-(trifluoromethyl)piperidin-1-yl)methyl)cyclopropyl)methoxy)-5,6,6a,7,8,9,10,11-octahydro-4-oxa-3,11a,12,14,15-pentaaza-7,10-methanocyclohepta [4,5]cycloocta [1,2,3-de]naphthalen-2-yl)-5-methyl-4-(trifluoromethyl)aniline] | < 0.3 | 3 to 1000 |  |  |
